Results taken from ChEMBL document CHEMBL1147997, “Design, synthesis and biological evaluation of new oligopyrrole carboxamides linked with tricyclic DNA-intercalators as potential DNA ligands or topoisomerase inhibitors” (2007).
Active and inactive are the calls of the source. No cut-off for these calls is given here.

How the values were obtained:
[1] = Growth inhibition of human NCI-H322 M cells; assay type: functional; settings: NCI-H322M
SF-268 = test: Antitumor activity against human SF268 cells at 0.1 uM assessed as cell growth; assay type: functional
NCI-H460 = test: Antitumor activity against human NCI-H460 cells at 0.1 uM assessed as cell growth; assay type: functional
MCF7 = test: Antitumor activity against human MCF7 cells at 0.1 uM assessed as cell growth; assay type: functional
MDA-MB-435 = test: Growth inhibition of human MDA-MB-435 cells; assay type: functional
[2] = target: T1, DNA topoisomerase 1 (Homo sapiens) (UniProt P11387); test: Inhibition of human topoisomerase 1 by DNA relaxation assay
T1 sequence (whole entry): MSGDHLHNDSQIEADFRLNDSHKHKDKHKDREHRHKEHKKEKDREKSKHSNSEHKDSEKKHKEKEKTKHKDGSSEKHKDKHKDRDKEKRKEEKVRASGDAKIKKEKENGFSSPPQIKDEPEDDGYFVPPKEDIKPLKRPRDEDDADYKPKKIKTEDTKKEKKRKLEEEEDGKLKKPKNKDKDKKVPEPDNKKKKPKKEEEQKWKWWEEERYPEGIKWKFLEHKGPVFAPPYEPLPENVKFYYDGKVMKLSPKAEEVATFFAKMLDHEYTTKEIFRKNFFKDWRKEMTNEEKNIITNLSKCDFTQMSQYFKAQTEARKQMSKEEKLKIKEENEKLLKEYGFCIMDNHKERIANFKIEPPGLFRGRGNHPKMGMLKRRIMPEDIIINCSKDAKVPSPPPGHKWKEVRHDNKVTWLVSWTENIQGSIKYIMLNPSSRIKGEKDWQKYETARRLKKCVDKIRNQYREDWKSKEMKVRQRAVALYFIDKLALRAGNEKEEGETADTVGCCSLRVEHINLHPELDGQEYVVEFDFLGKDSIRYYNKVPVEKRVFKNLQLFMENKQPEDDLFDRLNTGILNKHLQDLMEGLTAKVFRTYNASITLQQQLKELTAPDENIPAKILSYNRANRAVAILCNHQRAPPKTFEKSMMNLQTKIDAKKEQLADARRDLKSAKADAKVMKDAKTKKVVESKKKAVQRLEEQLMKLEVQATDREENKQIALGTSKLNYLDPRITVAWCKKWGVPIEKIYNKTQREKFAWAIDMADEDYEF

UACC-257 = test: Growth inhibition of human UACC257 cells; assay type: functional

Structure (SMILES)	Activity [2]	Activity (SF-268) [%]	Activity (NCI-H460) [%]	Activity (MCF7) [%]	other results
CN(C)CCCNC(=O)c1cc(NC(=O)c2cc(NC(=O)CCNS(=O)(=O)c3ccc4c(c3)C(=O)c3ccccc3C4=O)cn2C)cn1C		98	84	27	GI50 [1]: 35.7 µM
CN(C)CCCNC(=O)c1cc(NC(=O)c2cc(NC(=O)CCCN3c4ccccc4C=Cc4ccccc43)cn2C)cn1C					GI50 (MDA-MB-435): 57.5 µM
CN(C)CCCNC(=O)c1cc(NC(=O)c2cc(NC(=O)CCCN3C(=O)c4cccc5cc([N+](=O)[O-])cc(c45)C3=O)cn2C)cn1C	inactive				
CN(C)CCCNC(=O)c1cc(NC(=O)c2cc(NC(=O)CCn3c4ccccc4c(=O)c4ccccc43)cn2C)cn1C			52		
CN(C)CCCNC(=O)c1cc(NC(=O)CCNC(=O)c2ccc3c(c2)C(=O)c2ccccc2C3=O)cn1C		113	103	32	
CN(C)CCCNC(=O)c1cc(NC(=O)c2cc(NC(=O)CCCN3C(=O)c4cccc5cccc(c45)C3=O)cn2C)cn1C	inactive				
CN(C)CCCNC(=O)c1cc(NC(=O)CCNS(=O)(=O)c2ccc3c(c2)C(=O)c2ccccc2C3=O)cn1C		2	1	1	GI50 (UACC-257): 54.4 µM

More lines, main results first:

Activity [2]	Structure (SMILES)	Activity (SF-268) [%]	Activity (NCI-H460) [%]	Activity (MCF7) [%]	other results
inactive	CN(C)CCCNC(=O)c1cc(NC(=O)c2cc(NC(=O)Cn3c4ccccc4c(=O)c4ccccc43)cn2C)cn1C				
inactive	CN(C)CCCNC(=O)c1cc(NC(=O)c2cc(NC(=O)CCNC(=O)c3c4ccccc4nc4ccccc34)cn2C)cn1C				
inactive	CN(C)CCCNC(=O)c1cc(NC(=O)c2cc(NC(=O)CCCn3c4ccccc4c(=O)c4ccccc43)cn2C)cn1C		47	48	
